Read-outs that look alike come from different tables or passages of the source.
Experiment: Pharmacokinetics study: exposure in inner ear, perilymph and tail plasma after single oral dose
Format: in vivo, Wistar rats
Settings: for Total AUC Inner ear / Total AUC Perilymph / Total AUC Tail plasma / concentration at 15 min / concentration at 30 min / concentration at 60 min / concentration at 120 min / concentration at 240 min / concentration at 480 min: 10 mg/kg p.o. single dose; for concentration at 15 min / concentration at 30 min / concentration at 60 min / concentration at 120 min / concentration at 240 min / concentration at 480 min / AUC: male, Wistar, rat; for concentration at 15 min / concentration at 30 min / concentration at 60 min / concentration at 120 min / concentration at 240 min / concentration at 480 min: oral, read-out: Average Inner ear concentration (ng azasetron free-base/g tissue); for AUC: po, 10 mg/kg, 10 mg/kg p.o., per-interval AUC of azasetron free-base
Text: The 72 male Wistar rats received on 28 Jan. 2016 from Janvier (Janvier, Le Genest-St-Isle) were assigned to the study. They were divided in 3 groups of 24 animals each, one group per test article. Each group was divided in […] subgroups according to the 6-termination time-points.
72 Wistar rats were subjected to oral single dose administration of the test article, racemic azasetron hydrochloride, azasetron hydrochloride (+) or azasetron hydrochloride (−), and sacrificed at different time-points to assess the exposure of the test article in the inner ear, perilymph, and plasma. • Group racemic azasetron: 24 male Wistar, 4 rats per time-point: 10 mg/kg azasetron HCl dissolved in NaCl 0.9%. Administrated as 5 mL/kg p.o.; • Group azasetron (+): 24 male Wistar, 4 rats per time-point: 10 mg/kg (+)-azasetron HCl dissolved in NaCl 0.9%. Administrated as 5 mL/kg p.o.; • Group azasetron (−): 24 male Wistar, 4 rats per time-point: 10 mg/kg (−)-azasetron HCl dissolved in NaCl 0.9%. Administrated as 5 mL/kg p.o.
There were 6 termination time-points for each test article. At time-points 15/30/60/120/240/480 minutes after administration: peripheral plasma from the tail was sampled. The animals were sacrificed by i.v. administration of 0.25 mL/rat of a 160 mg/mL pentobarbital solution. Following sacrifice, the heart blood and both tympanic bullas (left and right) were sampled.
Both tympanic bullas (left and right) were collected, however, only the left one was used for the perilymph and inner ear analysis. The right bulla was stored at −20° C. for future needs when required. For animal IDs 1 and 4, the right bulla was used for the sampling of perilymph and inner ear.
The left bulla was dissected fresh. Briefly, the bulla was opened via the auditory opening to reveal the bone surrounding the cochlea after which the tip of the bone was removed with forceps and a 10 μL pipette tip was inserted to withdraw perilymph.
Upon exposure of the tip of the cochlea, 2 μL of perilymph (fluid) could be recovered from the bulla. The perilymph was brought to 10 μL by the addition of 8 μL water, and then extract via the addition of 30 μL of acetonitrile. After that, the samples were centrifuged and the supernatant was transferred to a glass vial appropriate for the HPLC-MS auto-sampler.
Following recovering of the perilymph, the bones of the inner ear and cochlea components were removed with fine forceps and added to a tared Eppendorf tube. The collection was weighed and brought to 10 mg with the addition of water and placed on ice until extraction. 30 μL of acetonitrile was added and the tubes were incubated in an ultrasound bath, after which they were centrifuged and the supernatant was transferred to a glass vial appropriate for the HPLC-MS auto-sampler. In the process or removing the bones of the inner ear, they were finely distributed in the media and broken by forceps. (Due to the very low volume of the tissue and its fine structure, separate grinding is considered risky vs the potential losses to plastic and media. The materials are very fine in nature and the bone particles are small thus providing only short interfaces to media. The absence of fat and the incubation in solvent is intended to provide sufficient solubility of active ingredient).
The acetonitrile used in the sample preparation for bio-analysis contained the internal standard for the HPLC-MS analysis.
30 μL acetonitrile including the internal standard were added to each 10 μL plasma sample. After adding the acetonitrile, the samples were mixed by vortex and further centrifuged. The supernatant was transferred to a glass vial appropriate for the HPLC-MS auto-sampler.
The LC system comprised an Agilent 1260 liquid chromatography equipped with a binary pump and a column oven, together with a PAL HTS-xt auto-sampler. It is linked to the AB SCIEX TRIPLE QUADTM 4500 (triple-quadrupole) instrument with an ESI interface and a switching valve integrated (Mass spectrometric analysis). […]

[1] = inner ear, Time 15 (min), read-out: Inner ear AUC (converted)
[2] = inner ear, Time 30 (min), read-out: Inner ear AUC (converted)
[3] = inner ear, Time 60 (min), read-out: Inner ear AUC (converted)
[4] = inner ear, Time 120 (min), read-out: Inner ear AUC (converted)
[5] = inner ear, Time 240 (min), read-out: Inner ear AUC (converted)
[6] = inner ear, Time 480 (min), read-out: Inner ear AUC (converted)
[7] = perilymph, Time 15 (min), read-out: Perilymph AUC (converted)
[8] = perilymph, Time 30 (min), read-out: Perilymph AUC (converted)
[9] = perilymph, Time 60 (min), read-out: Perilymph AUC (converted)
[10] = perilymph, Time 120 (min), read-out: Perilymph AUC (converted)
[11] = perilymph, Time 240 (min), read-out: Perilymph AUC (converted)
[12] = perilymph, Time 480 (min), read-out: Perilymph AUC (converted)
[13] = tail plasma, Time 15 (min), read-out: Tail plasma AUC (converted)
[14] = tail plasma, Time 30 (min), read-out: Tail plasma AUC (converted)
[15] = tail plasma, Time 60 (min), read-out: Tail plasma AUC (converted)
[16] = tail plasma, Time 120 (min), read-out: Tail plasma AUC (converted)
[17] = tail plasma, Time 240 (min), read-out: Tail plasma AUC (converted)
[18] = tail plasma, Time 480 (min), read-out: Tail plasma AUC (converted)

| Structure (SMILES) | Total AUC Inner ear [nM·min] | Total AUC Perilymph [nM·min] | Total AUC Tail plasma [nM·min] | concentration at 15 min (inner ear, Time 15 (min)) [ng/g] | concentration at 30 min (inner ear, Time 30 (min)) [ng/g] | concentration at 60 min (inner ear, Time 60 (min)) [ng/g] | concentration at 120 min (inner ear, Time 120 (min)) [ng/g] | concentration at 240 min (inner ear, Time 240 (min)) [ng/g] | concentration at 480 min (inner ear, Time 480 (min)) [ng/g] | AUC [1] [µM·h] | AUC [2] [µM·h] | AUC [3] [µM·h] | AUC [4] [µM·h] | AUC [5] [µM·h] | AUC [6] [µM·h] | AUC [7] [µM·h] | AUC [8] [µM·h] | AUC [9] [µM·h] | AUC [10] [µM·h] | AUC [11] [µM·h] | further results |
| --- | --- | --- | --- | --- | --- | --- | --- | --- | --- | --- | --- | --- | --- | --- | --- | --- | --- | --- | --- | --- | --- |
| CN1C(=O)COc2c(C(=O)NC3CN4CCC3CC4)cc(Cl)cc21 (racemic) [Racemic azasetron, N-(1-azabicyclo[2.2.2]octan-8-yl)-6-chloro-4-methyl-3-oxo-1,4-benzoxazine-8-carboxamide] | 43592 | 25873 | 177194 | 25 | 61 | 63 | 35 | 37 | 7 | 0.0119 | 0.0336 | 0.0887 | 0.14 | 0.204 | 0.248 | 0.0183 | 0.0328 | 0.0455 | 0.0635 | 0.117 | AUC [12]: 0.154 µM·h; AUC [13]: 0.168 µM·h; AUC [14]: 0.263 µM·h; AUC [15]: 0.309 µM·h; AUC [16]: 0.374 µM·h; AUC [17]: 0.758 µM·h; AUC [18]: 1.08 µM·h |
| CN1C(=O)COc2c(C(=O)N[C@H]3CN4CCC3CC4)cc(Cl)cc21 [(+)-azasetron] | 69036 | 40910 | 210768 | 57 | 86 | 93 | 79 | 52 | 6 | 0.0204 | 0.051 | 0.127 | 0.246 | 0.375 | 0.331 | 0.0194 | 0.0297 | 0.0517 | 0.129 | 0.227 | AUC [12]: 0.225 µM·h; AUC [13]: 0.0983 µM·h; AUC [14]: 0.192 µM·h; AUC [15]: 0.35 µM·h; AUC [16]: 0.622 µM·h; AUC [17]: 1.11 µM·h; AUC [18]: 1.14 µM·h; exposure (total AUC) to azasetron in the perilymph, inner ear, and plasma versus racemic azasetron or (−)-azasetron (single equivalent oral dose (10 mg/kg)): greater exposure (total AUC) |

From patent US11612605B2, “(+)-azasetron for use in the treatment of ear disorders” (SENSORION, priority 2016, dated 2023)
